Assay results: patent publication US6589970B2, “6-(aryl-amido or aryl-amidomethyl)-naphthalen-2-yloxy-acidic derivatives as inhibitors of plasminogen activator inhibitor type-1 (PAI-1)” (Wyeth, priority 2001, dated 2003)
Structures can show the parent of a compound that is named as a salt.

Tests used:
[1] = molecular target: T1, recombinant human plasminogen activator inhibitor-1 (PAI-1) (Homo sapiens, UniProt P05121); assay: Modification of the Primary Screen for the PAI-1 Inhibition (IC50); type: biochemical
T1 construct: purchased Molecular Innovations, Royal Oak, Mich
Description: (§1) Test compounds are dissolved in DMSO at a final concentration of 10 mM, then diluted 100× in physiologic buffer. The inhibitory assay is initiated by the addition of the test compound (1-100 μM final concentration, maximum DMSO concentration of 0.2%) in a pH 6.6 buffer containing 140 nM recombinant human plasminogen activator inhibitor-1 (PAI-1; Molecular Innovations, Royal Oak, Mich.). Following a 1 hour incubation at room temperature, 70 nM of recombinant human tissue plasminogen activator (tPA) is added, and the combination of the test compound, PAI-1 and tPA is incubated for an additional 30 minutes. Following the second incubation, Spectrozyme-tPA (American Diagnostica, Greenwich, Conn.), a chromogenic substrate for tPA, is added and absorbance read at 405 nm at 0 and 60 minutes. Relative PAI-1 inhibition is equal to the residual tPA activity in the presence of the test compound and PAI-1. Control treatments include the complete inhibition of tPA by PAI-1 at the molar ratio employed (2:1), and the absence of any effect of the test compound on tPA alone.

[2] = molecular target: T1, recombinant human plasminogen activator inhibitor-1 (PAI-1); assay: Primary Screen for the PAI-1 Inhibition; type: biochemical; details: for inhibition at 25 µM: 25 μM test compound, read-out: % Inhib. 25 μM; for inhibition at 100 µM: 100 μM test compound, read-out: % Inhib. 100 μM
Description: as §1

human PAI-1 = human PAI-1 (Homo sapiens, UniProt P05121); assay: Assay for Determining IC50 of Inhibition of PAI-1 (Antibody Assay); type: biochemical; details: active PAI-1 bound to tPA-coated plate
Description: This assay is based upon the non-SDS dissociable interaction between tPA and active PAI-1. Assay plates are initially coated with human tPA (10 μg/ml). The test compounds are dissolved in DMSO at 10 mM, then diluted with physiologic buffer (pH 7.5) to a final concentration of 1-50 μM. The test compounds are incubated with human PAI-1 (50 ng/ml) for 15 minutes at room temperature. The tPA-coated plate is washed with a solution of 0.05% Tween 20 and 0.1% BSA, then the plate is blocked with a solution of 3% BSA. An aliquot of the test compound/PAI-1 solution is then added to the tPA-coated plate, incubated at room temperature for 1 hour, and washed. Active PAI-1 bound to the plate is assessed by adding an aliquot of a 1:1000 dilution of the 33B8 monoclonal antibody against human PAI-1, and incubating the plate at room temperature for 1 hour (Molecular Innovations, Royal Oak, Mich. The plate is again washed, and a solution of goat anti-mouse IgG-alkaline phosphatase conjugate is added at a 1:50,000 dilution in goat serum. The plate is incubated 30 minutes at room temperature, washed, and a solution of alkaline phosphatase substrate is added. The plate is incubated 45 minutes at room temperature, and color development is determined at OD405nm. The quantitation of active PAI-1 bound to tPA at varying concentrations of the test compound is used to determine the IC50. Results are analyzed using a logarithmic best-fit equation. The assay sensitivity is 5 ng/ml of human PAI-1 as determined from a standard curve ranging from 0-100 ng/ml.

human PAI-1, sequence (P05121 24-402): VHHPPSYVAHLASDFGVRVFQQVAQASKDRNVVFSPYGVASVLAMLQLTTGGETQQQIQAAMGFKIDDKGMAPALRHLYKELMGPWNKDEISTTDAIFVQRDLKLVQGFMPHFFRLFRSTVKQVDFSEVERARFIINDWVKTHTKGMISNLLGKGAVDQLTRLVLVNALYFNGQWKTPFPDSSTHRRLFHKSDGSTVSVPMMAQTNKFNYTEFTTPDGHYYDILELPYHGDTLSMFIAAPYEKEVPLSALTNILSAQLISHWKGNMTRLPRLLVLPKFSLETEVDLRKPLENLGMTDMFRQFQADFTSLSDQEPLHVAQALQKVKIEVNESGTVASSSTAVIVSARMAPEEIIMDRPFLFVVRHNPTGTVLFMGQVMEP
T1 sequence (P05121 24-402): as above

Row | IC50 [1] [µM] | inhibition at 25 µM [2] [%] | inhibition at 100 µM [2] [%] | IC50 (human PAI-1) [µM] | melting point [°C] | Structure (SMILES)
1 |  | 34 | 81 | 19.3 | 197 to 198 | CN(Cc1ccc2c(Br)c(OCc3nnn[nH]3)ccc2c1)C(=O)c1cn(Cc2ccccc2)c2ccccc12 [Example 34, 1-Benzyl-1H-indole-3-carboxylic acid [5-bromo-6-(1H-tetrazol-5-ylmethoxy)-naphthalen-2-ylmethyl]-methyl-amide]
2 |  | 52 | 96 | 20.6 | 227 to 228 | CN(Cc1ccc2c(Br)c(OCc3nnn[nH]3)ccc2c1)C(=O)c1cn(C)c2ccccc12 [Example 37, 1-Methyl-1H-indole-3-carboxylic acid [5-bromo-6-(1H-tetrazol-5-ylmethoxy)-naphthalen-2-ylmethyl]-methyl-amide]
3 |  | 54 | 72 | 6.92 |  | Cc1oc2ccccc2c1C(=O)N(Cc1ccccc1)Cc1ccc2c(Br)c(OCc3nnn[nH]3)ccc2c1 [Example 49, 2-Methyl-benzofuran-3-carboxylic acid benzyl-[5-bromo-6-(1H-tetrazol-5-ylmethoxy)-naphthalen-2-ylmethyl]-amide]
4 |  | 56 | 61 | 35.7 |  | CCc1oc2ccccc2c1C(=O)N(Cc1ccccc1)Cc1ccc2c(Br)c(OCc3nnn[nH]3)ccc2c1 [Example 50, 2-Ethyl-benzofuran-3-carboxylic acid benzyl-[5-bromo-6-(1H-tetrazol-5ylmethoxy)-naphthalen-2-ylmethyl)-amide]
5 |  | 44 | 81 | 20.8 | 204 to 206 | CCCCN(Cc1ccc2c(Br)c(OCc3nnn[nH]3)ccc2c1)C(=O)c1c(C)oc2ccccc12 [Example 52, 2-Methyl-benzofuran-3-carboxylic acid [5-bromo-6-(1H-tetrazol-5-ylmethoxy)-naphthalen-2-ylmethyl]-butyl-amide]
6 |  | 40 | 60 | 13.6 |  | CN(Cc1ccc2c(Br)c(OC(Cc3ccccc3)C(=O)O)ccc2c1)C(=O)c1ccc(Oc2cc(Cl)cc(Cl)c2)o1 (stereo not shown) [Example 64, 2-[1-Bromo-6-({[5-(3,5-dichloro-phenoxy)-furan-2-carbonyl]-methyl-amino}-methyl)-naphthalen-2-yloxy]-3-phenyl-propionic acid]
7 |  | 46 | 88 | 14.6 |  | CN(Cc1ccc2c(Br)c(OC(Cc3ccccc3)C(=O)O)ccc2c1)C(=O)c1cc(C(C)(C)C)cc(C(C)(C)C)c1 (stereo not shown) [Example 65, 2-(1-Bromo-6-{[(3,5-di-tert-butyl-benzoyl)-methyl-amino]-methyl}-naphthalen-2-yloxy)-3-phenyl-propionic acid]
8 |  | 59 | 66 | 13.5 |  | O=C(O)C(Cc1ccccc1)Oc1ccc2cc(CN(Cc3ccccc3)C(=O)c3ccc(Oc4cc(Cl)cc(Cl)c4)o3)ccc2c1Br (stereo not shown) [Example 67, 2-[6-({Benzyl-[5-(3,5-dichloro-phenoxy)-furan-2-carbonyl]-amino}-methyl)-1-bromo-naphthalen-2-yloxy]-3-phenyl-propionic acid]
9 |  | 54 | 84 | 20 |  | CCCCc1oc2ccccc2c1C(=O)N(Cc1ccccc1)Cc1ccc2c(Br)c(OC(Cc3ccccc3)C(=O)O)ccc2c1 (stereo not shown) [Example 68, 2-(6-{[Benzyl-(2-butyl-benzofuran-3-carbonyl)-amino]-methyl}-1-bromo-naphthalen-2-yloxy)-3-phenyl-propionic acid]
10 |  | 55 | 92 | 16.8 |  | CC(C)(C)c1cc(C(=O)N(Cc2ccccc2)Cc2ccc3c(Br)c(OC(Cc4ccccc4)C(=O)O)ccc3c2)cc(C(C)(C)C)c1 (stereo not shown) [Example 69, 2-(6-{[Benzyl-(3,5-di-tert-butyl-benzoyl)-amino]-methyl}-1-bromo-naphthalen-2-yloxy)-3-phenyl-propionic acid]

The next lines start with the compound.

Row | Structure (SMILES) | IC50 [1] [µM] | inhibition at 25 µM [2] [%] | inhibition at 100 µM [2] [%] | IC50 (human PAI-1) [µM] | melting point [°C]
11 | CCCCc1oc2ccccc2c1C(=O)Nc1ccc2c(Br)c(OCC(=O)O)ccc2c1 [Example 6, {1-Bromo-6-[(2-butyl-benzofuran-3-carbonyl)-amino]-naphthalen-2-yloxy}-acetic acid sodium salt] | 18.3 | 43 | 67 |  | 
12 | CCCCc1oc2ccccc2c1C(=O)NCc1ccc2cc(OCc3nnn[nH]3)ccc2c1 [Example 8, 2-Butyl-benzofuran-3-carboxylic acid [6-(1H-tetrazol-5-ylmethoxy)-naphthalen-2-ylmethyl]-amide sodium salt] | 22.9 | 13 | 71 |  | 
13 | Cc1oc(-c2ccc(Cl)cc2)cc1C(=O)NCc1ccc2cc(OCC(=O)O)ccc2c1 [Example 10, [6-({[5-(4-Chloro-phenyl)-2-methyl-furan-3-carbonyl]-amino}-methyl)-naphthalen-2-yloxy]-acetic acid] | 25.2 | 7 | 53 |  | 
14 | CCCCc1oc2ccccc2c1C(=O)NCc1ccc2c(Br)c(OC(Cc3ccccc3)C(=O)O)ccc2c1 (stereo not shown) [Example 18, 2-(1-Bromo-6-{[(2-butyl-benzofuran-3-carbonyl)-amino]-methyl}-naphthalen-2-yloxy)-3-phenyl-propionic acid] |  | 53 | 92 | 15.7 | 
15 | Cc1oc2ccccc2c1C(=O)NCc1ccc2c(Br)c(OCc3nnn[nH]3)ccc2c1 [Example 20, 2-Methyl-benzofuran-3-carboxylic acid [5-bromo-6-(1H-tetrazol-5-ylmethoxy)-naphthalen-2-ylmethyl]-amide] |  | 26 | 58 | 15.8 | 242 to 244
16 | CCc1oc2ccccc2c1C(=O)NCc1ccc2c(Br)c(OCc3nnn[nH]3)ccc2c1 [Example 21, 2-Ethyl-benzofuran-3-carboxylic acid [5-bromo-6-(1H-tetrazol-5-yl methoxy)-naphthalen-2-ylmethyl]-amide] |  | 36 | 54 | 5.08 | 235 to 238
17 | CCCCc1oc2ccccc2c1C(=O)NCc1ccc2c(-c3ccc(OC)cc3)c(OCc3nnn[nH]3)ccc2c1 [Example 25, 2-Butyl-benzofuran-3-carboxylic [5-(4-methoxy phenyl)-6-(1H-tetrazol-5-ylmethoxy)-naphthalen-2-ylmethyl]-amide, sodium salt] | 4.6 | 3 | 94 |  | 
18 | CCCCc1oc2ccccc2c1C(=O)NCc1ccc2c(-c3ccc(OC)cc3)c(OC(Cc3ccccc3)C(=O)[O-])ccc2c1.[Na+] (stereo not shown) [Example 30, Sodium; 2-[6-{[(2-Butyl-benzofuran-3-carbonyl)-amino]-methyl}-1-(4-methoxy-phenyl)-naphthalen-2-yloxy]-3-phenyl-propionate] |  | 38 | 91 | 44.9 | 138 to 142
19 | CCc1oc2ccccc2c1C(=O)N(C)Cc1ccc2c(Br)c(OCc3nnn[nH]3)ccc2c1 [Example 32, 2-Ethyl-benzofuran-3-carboxylic acid [5-bromo-6-(1H-tetrazol-5-ylmethoxy)-naphthalen-2-ylmethyl]-methyl-amide] |  | 1 | 70 | 25.9 | 
20 | CCCc1c(C(=O)N(C)Cc2ccc3c(Br)c(OCc4nnn[nH]4)ccc3c2)cnn1-c1ccccc1 [Example 33, 1-Phenyl-5-propyl-1H-pyrazole-4-carboxylic acid [5-bromo-6-(1H-tetrazol-5-ylmethoxy)-naphthalen-2-ylmethyl]-methyl-amide] |  | 59 | 94 | 31.1 | 75 to 85
